Assay results: patent publication US20080113908A1, “Use of CRF receptor agonists for the treatment or Prophylaxis of diseases, for example Neurodegenerative diseases” (SmithKline Beecham plc, priority 2000, published 2008)
Where two headings read alike, the source gives them in different places. Ends that are not written are not given here.

Columns and labels:
hippocampal neurones = assay: Amyloid-β peptide (25-35) toxicity, survival by counting viable neurons (FIGS. 8, 9); type: cell-based; conditions: for neuronal death: 10-20 μM
Description: In order to test whether CRF receptor agonists protect neurones from death caused by Aβ, the following experiment was conducted (FIGS. 8 and 9). Hippocampal neurons from embryonic day 18 rat were cultured in serum-free medium (neurobasal/B27) for 9 days. The culture methods are described on page 48 of S. D. Skaper et al., J. Neurochem., 2001, 76, 47-55. Cells were then treated with amyloid-β peptide (fragment 25-35) (Sigma, cat. no. A-4559, sequence Gly-Ser-Asn-Lys-Gly-Ala-Ile-Ile-Gly-Leu-Met) at 10 μM plus the indicated CRF receptor agonist at the indicated concentration, in the same culture medium. […] Cell survival was assessed after 3 days, by fixing the cultures and counting microscopically viable neurons. Values are expressed relative to numbers of surviving neurons in untreated cultures (=100).

[1] = system: primary cerebellar granule neurones; assay: Assay 2: effect of CP154,526 on agonist protection against LY294002 neurotoxicity; type: cell-based, rat; conditions: LY 294002 75 μM; for effect of CP 154,526 on neuroprotective effect of CRF receptor agonist (FIGS. 2B-D): urocortin, urotensin 1 or sauvagine 10 nM
Description: Assay 2: This assay measures the effects of CP154,526, a selective CRF receptor-1 antagonist, on the protective effects of a putative CRF receptor agonist against neurotoxicity induced by LY294002 in primary cerebellar granule neurones. The assay is identical to Assay 1 except that after shifting the granule neurone cultures to the medium, the cultures were incubated with CP154,526 at concentrations varying from 3 nM to 1000 nM for 30 minutes prior to simultaneous addition of the putative CRF receptor agonist (10 nM) and LY 294002 (75 μM). 48 hours later neuronal survival was measured as in Assay 1.
The columns from left to right represent: (1) control: cells cultured with CRF (10 nM) and LY 294002 (75 μM); (2 to 7) cells cultured with CRF (10 nM), LY 294002 (75 μM) and CP 154,526 at concentrations of 3 nM, 10 nM, 30 nM, 100 nM, 300 nM and 1000 nM respectively; and (8) cells cultured without agonist (CRF) but with LY 294002 (75 μM).

[2] = system: cerebellar granule neurones; type: cell-based, rat; conditions: 48 h, MTT, sham-treated = 100%
Description: Cerebellar granule neurones were used in the examples to test neuroprotection by CRF receptor agonists. Cerebellar granule neurones (CGNs) undergo apoptosis during the first few weeks of postnatal life, and in culture require mildly depolarising concentrations of KCl (25 mM) for their survival and maturation (S. R: D'Mello et al., Proc. Natl. Acad. Sci. USA 90, 10989-10993, 1993). The growth signal provided by KCl depends upon activation of the phosphatidylinositol 3-kinase (PI 3-kinase) pathway, and pharmacological inhibition of PI 3-kinase in differentiated granule neurones leads to apoptotic death in the CGNs (T. M. Miller et al., J. Biol. Chem., 272, 9847-9853, 1997). Thus, cultured CGNs represent a suitable model to study mechanisms of programmed cell death, and to identify putative neuroprotective signalling pathways.
Assay 1: Cerebellar granule neurones prepared from postnatal day 8 Sprague Dawley rat pups were used for experiments on death induced by inhibition of PI 3-kinase. General culture methods are described in S. D. Skaper et al. in Methods in Neurosciences, Vol. 2 (Conn P. M., ed), pp. 17-33. Academic Press, San Diego, 1990. At 8-9 days in vitro (DIV), granule neurone cultures were shifted to phenol red-free Dulbecco's modified Eagle's medium lacking serum, and containing 0.05% bovine serum albumin and 25 mM KCl. Death was induced by addition of the PI 3-kinase inhibitor LY 294002 (75 μM). CRF or CRF agonist peptides (urotensin 1, urocortin, sauvagine) were added at different concentrations (from 0.3nM to 300 nM or 1000 nM) together with LY 294002. Forty-eight hours later neuronal survival was quantified by a colorimetric reaction MTT. Absolute MTT values obtained were normalised for small differences in interexperiment plating densities by scaling to the mean of sham-treated sister cultures (defined as 100%).
Results are shown in Table 1 below and in graphical form in FIG. 1, which show the percentage mean neuronal survival (and standard deviation), when in the presence of the relevant CRF receptor agonists and LY 294002, as a function of agonist concentration. […] Urotensin 1, urocortin and sauvagine were also neuroprotective albeit with lower potency (<1 μM).

[3] = system: cerebellar granule neurones; assay: Assay 3: intracellular cyclic AMP enzyme immunoassay; type: cell-based, rat; conditions: agonist 0 to 30 nM, 15 min, 0.5 mM IBMX
Description: Assay 3: The production of cAMP by the CRF receptor agonist peptides CRF, urotensin 1, urocortin and sauvagine was measured as follows. This assay can be used analogously for any putative CRF receptor agonists including non-peptide agonists.
Intracellular cyclic AMP was measured with a cAMP 2-site enzyme immunoassay system (trade mark BIOTRAK, commercially available from Amersham Pharmacia Biotech, PO Box 164, Rainham, Essex RM13 8JZ, United Kingdom, Amersham catalogue number RPN225), based upon the use of a sensitive and highly specific capture antibody for cyclic AMP:
Cerebellar granule neurones were seeded in polylysine-coated […] plates, 3.5×10^5 cells per 48-well, in Basal medium Eagle's containing 10% fetal calf serum, 25 mM KCl, and antibiotics. At 8-9 days in vitro, granule neurone cultures were shifted to serum-free plating medium (0.4 ml) with 0.5 mM IBMX (to inhibit the breakdown of cyclic AMP) for 15 min (37° C.). Wells then received 0.1 ml of test peptide (5× final concentration). Generally 1 μM is the preferable final concentration for a putative CRF agonist under test, though different (e.g. lower) concentrations can be used as shown for the peptide agonists in FIG. 3. Incubation was continued for 15 min. Test medium was removed and the plate placed on dry ice, and stored at −140° C. Cyclic AMP analysis was performed the following day.
Cells were then lysed with the reagent provided with the BIOTRAK kit. Intracellular content of cyclic AMP in the lysates was assayed following the manufacturer's instructions. A standard curve was constructed using the cyclic AMP calibration provided, with the quantity of bound cyclic AMP being inversely proportional to the amount of second (chromogenic) antibody bound to the reaction wells. The colour product was read with an ELISA plate reader, and was a function of the amount of cyclic AMP in the unknown sample.

[4] = molecular target: CRF receptor-1 (Type 1 CRF receptor) on primary rat neurones (rat, UniProt P35353); assay: cell-based or functional assay
[5] = agonist 0.3 nM with LY 294002 75 μM
[6] = agonist 1 nM with LY 294002 75 μM
[7] = agonist 3 nM with LY 294002 75 μM
[8] = agonist 10 nM with LY 294002 75 μM
[9] = agonist 30 nM with LY 294002 75 μM
[10] = agonist 100 nM with LY 294002 75 μM
[11] = agonist 300 nM with LY 294002 75 μM

Molecule: CCCCN(CC)c1nc(C)nc2c1c(C)cn2-c1c(C)cc(C)cc1C [CP 154,526]
- effect of CP-154,526 on CRF's neuroprotection (FIG. 8) (hippocampal neurones; CP-154,526 1 μM with CRF (30 nM) and Aβ(25-35) 10 μM, 3 days): cancels all of CRF's neuroprotection
- effect of CP 154,526 on neuroprotective effect of CRF receptor agonist (FIGS. 2B-D) ([1]; CP 154,526 300 nM): partial reductions in neuroprotection
- effect of CP 154,526 on neuroprotective effect of CRF receptor agonist (FIGS. 2B-D) ([1]; CP 154,526 1000 nM): remove most or all of the neuroprotective effect
- effect of CP 154,526 on neuroprotective effect of CRF (FIG. 2A) ([1]; CP 154,526 as low as 300 nM, CRF 10 nM): remove almost completely the neuroprotective effect of 10 nM CRF

Molecule: GSNKGAIIGLM [Aβ, Gly-Ser-Asn-Lys-Gly-Ala-Ile-Ile-Gly-Leu-Met]
- neuronal death (hippocampal neurones; after 2-3 days): cell death was visible
- neuronal death (hippocampal neurones; after 1 day of exposure): no visible neuronal death

Molecule: CC[C@H](C)[C@H](NC(=O)[C@@H](NC(=O)[C@H](CC(=O)O)NC(=O)[C@H](CC(C)C)NC(=O)[C@H](CC(C)C)NC(=O)[C@H](CC(C)C)NC(=O)[C@H](CCCNC(=N)N)NC(=O)[C@H](CC(N)=O)NC(=O)[C@H](CC(N)=O)NC(=O)[C@H](C)NC(=O)[C@H](C)NC(=O)[C@H](CCC(N)=O)NC(=O)[C@H](CCC(N)=O)NC(=O)[C@H](CCCCN)NC(=O)[C@H](CCC(=O)O)NC(=O)[C@H](CCCCN)NC(=O)[C@H](CCC(=O)O)NC(=O)[C@H](CCC(N)=O)NC(=O)[C@H](CCCCN)NC(=O)[C@H](CCC(=O)O)NC(=O)[C@@H](NC(=O)[C@H](CCC(=O)O)NC(=O)[C@@H](NC(=O)[C@H](CCSC)NC(=O)[C@H](CCCCN)NC(=O)[C@H](CCCNC(=N)N)NC(=O)[C@H](CC(C)C)NC(=O)[C@H](CC(C)C)NC(=O)[C@H](CCC(=O)O)NC(=O)[C@H](CC(C)C)NC(=O)[C@H](CO)NC(=O)[C@H](CC(C)C)NC(=O)[C@H](CC(=O)O)NC(=O)[C@@H](NC(=O)[C@H](CO)NC(=O)[C@@H](NC(=O)[C@@H]1CCCN1C(=O)[C@@H]1CCCN1C(=O)CNC(=O)[C@@H]1CCC(=O)N1)[C@@H](C)CC)[C@@H](C)CC)[C@@H](C)CC)[C@@H](C)CC)[C@@H](C)O)C(N)=O [Sauvagine]
- Mean survival % [2, 5]: 49.33%
- Mean survival % [2, 6]: 66.5%
- Mean survival % [2, 7]: 76.33%
- Mean survival % [2, 8]: 80.67%
- Mean survival % [2, 9]: 78.67%
- Mean survival % [2, 10]: 77.33%
- Mean survival % [2, 11]: 78.33%
- cAMP synthesis induced by agonist (FIG. 3) [3]: cAMP production increased with agonist concentration

Molecule: MLGIIAGKNSG [reverse β-amyloid sequence (35-25)]
- neurotoxicity of peptide (hippocampal neurones; 20 μM, results not shown): not to be neurotoxic

Molecule: DDPPLSIDLTFHLLRTLLELARTQSQRERAEQNRIIFDSV [Urocortin, Urocortin (rat, Sigma Cat. no. U-6631), CRF receptor agonist peptide]
- Mean survival % [2, 5]: 50.67%
- Mean survival % [2, 6]: 61.33%
- Mean survival % [2, 7]: 69.33%
- Mean survival % [2, 8]: 77.33%
- Mean survival % [2, 9]: 80.67%
- Mean survival % [2, 10]: 75%
- Mean survival % [2, 11]: 84%
- cAMP synthesis induced by agonist (FIG. 3) [3]: cAMP production increased with agonist concentration

Molecule: DDPPLSIDLTFHLLRTLLELARTQSQRERAEQNRIIFDSV-NH2 [Urocortin (rat, Sigma Cat. no. U-6631)]
- potency of neuroprotection of cerebellar granule neurones against LY 294002 (Assay 1) [4]: < 1000 nM

Molecule: NDDPPISIDLTFHLLRNMIEMARIENEREQAGLNRKYLDEV-NH2 [Urotensin 1 (teleost fish, Sigma cat. no. U-7253)]
- potency of neuroprotection of cerebellar granule neurones against LY 294002 (Assay 1) [4]: < 1000 nM

Molecule: SQEPPISLDLTFHLLREVLEMTKADQLAQQAHNNRKLLDIA-NH2 [Rat CRF (corticotropin-releasing factor), Sigma catalogue no. C-3042]
- EC50 of neuroprotection of cerebellar granule neurones against LY 294002 (Assay 1) [4]: ~10 nM
